According to ChEMBL document CHEMBL3877299, “Imidazopyridine-fused [1,3]-diazepinones part 2: Structure-activity relationships and antiproliferative activity against melanoma cells” (Eur J Med Chem, 2017):

Assays:
Assay type in all cases: functional
[1] = Growth inhibition of human MDA-MB-435 cells assessed as cell growth at 10 uM incubated for 48 hrs by sulforhodamine B assay relative to control; settings: MDA-MB-435, 48 h, read-out: Activity
[2] = Growth inhibition of human SKOV3 cells assessed as cell growth at 10 uM incubated for 48 hrs by sulforhodamine B assay relative to control; settings: SK-OV-3, 48 h, read-out: Activity
[3] = Growth inhibition of human RPMI8226 cells assessed as cell growth at 10 uM incubated for 48 hrs by sulforhodamine B assay relative to control; settings: RPMI-8226, 48 h, read-out: Activity
[4] = Growth inhibition of human MOLT4 cells assessed as cell growth at 10 uM incubated for 48 hrs by sulforhodamine B assay relative to control; settings: MOLT-4, 48 h, read-out: Activity
[5] = Growth inhibition of human NCI-H226 cells assessed as cell growth at 10 uM incubated for 48 hrs by sulforhodamine B assay relative to control; settings: NCI-H226, 48 h, read-out: Activity
[6] = Growth inhibition of human TK10 cells assessed as cell growth at 10 uM incubated for 48 hrs by sulforhodamine B assay relative to control; settings: TK-10, 48 h, read-out: Activity
[7] = Growth inhibition of human Hs 578T cells assessed as cell growth at 10 uM incubated for 48 hrs by sulforhodamine B assay relative to control; settings: read-out: Activity
[8] = Growth inhibition of human SW620 cells assessed as cell growth at 10 uM incubated for 48 hrs by sulforhodamine B assay relative to control; settings: SW-620, 48 h, read-out: Activity
[9] = Growth inhibition of human MDA-MB-468 cells assessed as cell growth at 10 uM incubated for 48 hrs by sulforhodamine B assay relative to control; settings: MDA-MB-468, 48 h, read-out: Activity
[10] = Growth inhibition of human SR cells assessed as cell growth at 10 uM incubated for 48 hrs by sulforhodamine B assay relative to control; settings: read-out: Activity
[11] = Growth inhibition of human NCI-H23 cells assessed as cell growth at 10 uM incubated for 48 hrs by sulforhodamine B assay relative to control; settings: NCI-H23, 48 h, read-out: Activity
[12] = Growth inhibition of human SNB19 cells assessed as cell growth at 10 uM incubated for 48 hrs by sulforhodamine B assay relative to control; settings: SNB-19, 48 h, read-out: Activity
[13] = Growth inhibition of human ACHN cells assessed as cell growth at 10 uM incubated for 48 hrs by sulforhodamine B assay relative to control; settings: read-out: Activity
[14] = Growth inhibition of human DU145 cells assessed as cell growth at 10 uM incubated for 48 hrs by sulforhodamine B assay relative to control; settings: DU-145, 48 h, read-out: Activity
[15] = Growth inhibition of human HCT15 cells assessed as cell growth at 10 uM incubated for 48 hrs by sulforhodamine B assay relative to control; settings: HCT-15, 48 h, read-out: Activity
[16] = Growth inhibition of human K562 cells assessed as cell growth at 10 uM incubated for 48 hrs by sulforhodamine B assay relative to control; settings: K562, 48 h, read-out: Activity
[17] = Growth inhibition of human NCI-H522 cells assessed as cell growth at 10 uM incubated for 48 hrs by sulforhodamine B assay relative to control; settings: NCI-H522, 48 h, read-out: Activity
[18] = Growth inhibition of human HL-60(TB) cells assessed as cell growth at 10 uM incubated for 48 hrs by sulforhodamine B assay relative to control; settings: HL-60, 48 h, read-out: Activity
[19] = Cytotoxicity against human MDA-MB-435 cells assessed as growth inhibition after 48 hrs by MTT assay; settings: MDA-MB-435, 48 h
[20] = Growth inhibition of human MDA-MB-231 cells assessed as cell growth at 10 uM incubated for 48 hrs by sulforhodamine B assay relative to control; settings: MDA-MB-231, 48 h, read-out: Activity
[21] = Growth inhibition of human UO31 cells assessed as cell growth at 10 uM incubated for 48 hrs by sulforhodamine B assay relative to control; settings: UO-31, 48 h, read-out: Activity
[22] = Growth inhibition of human PC3 cells assessed as cell growth at 10 uM incubated for 48 hrs by sulforhodamine B assay relative to control; settings: PC-3, 48 h, read-out: Activity
[23] = Growth inhibition of human HOP62 cells assessed as cell growth at 10 uM incubated for 48 hrs by sulforhodamine B assay relative to control; settings: HOP-62, 48 h, read-out: Activity
[24] = Growth inhibition of human SF268 cells assessed as cell growth at 10 uM incubated for 48 hrs by sulforhodamine B assay relative to control; settings: SF-268, 48 h, read-out: Activity
[25] = Growth inhibition of human SN12C cells assessed as cell growth at 10 uM incubated for 48 hrs by sulforhodamine B assay relative to control; settings: read-out: Activity
[26] = Growth inhibition of human SK-MEL-2 cells assessed as cell growth at 10 uM incubated for 48 hrs by sulforhodamine B assay relative to control; settings: SK-MEL-2, 48 h, read-out: Activity
[27] = Growth inhibition of human M14 cells assessed as cell growth at 10 uM incubated for 48 hrs by sulforhodamine B assay relative to control; settings: M14, 48 h, read-out: Activity
[28] = Growth inhibition of human T47D cells assessed as cell growth at 10 uM incubated for 48 hrs by sulforhodamine B assay relative to control; settings: read-out: Activity
[29] = Growth inhibition of human RXF393 cells assessed as cell growth at 10 uM incubated for 48 hrs by sulforhodamine B assay relative to control; settings: RXF 393, 48 h, read-out: Activity
[30] = Growth inhibition of human OVCAR8 cells assessed as cell growth at 10 uM incubated for 48 hrs by sulforhodamine B assay relative to control; settings: OVCAR-8, 48 h, read-out: Activity
[31] = Growth inhibition of human SK-MEL-5 cells assessed as cell growth at 10 uM incubated for 48 hrs by sulforhodamine B assay relative to control; settings: SK-MEL-5, 48 h, read-out: Activity
[32] = Growth inhibition of human OVCAR4 cells assessed as cell growth at 10 uM incubated for 48 hrs by sulforhodamine B assay relative to control; settings: OVCAR-4, 48 h, read-out: Activity
[33] = Growth inhibition of human A498 cells assessed as cell growth at 10 uM incubated for 48 hrs by sulforhodamine B assay relative to control; settings: A498, 48 h, read-out: Activity
[34] = Growth inhibition of human KM12 cells assessed as cell growth at 10 uM incubated for 48 hrs by sulforhodamine B assay relative to control; settings: KM12, 48 h, read-out: Activity
[35] = Growth inhibition of human SNB75 cells assessed as cell growth at 10 uM incubated for 48 hrs by sulforhodamine B assay relative to control; settings: SNB-75, 48 h, read-out: Activity

SMILES	growth at 10 µM [1]	growth at 10 µM [2]	growth at 10 µM [3]	growth at 10 µM [4]	growth at 10 µM [5]	growth at 10 µM [6]	growth at 10 µM [7]	growth at 10 µM [8]	growth at 10 µM [9]	growth at 10 µM [10]	growth at 10 µM [11]	growth at 10 µM [12]	growth at 10 µM [13]	growth at 10 µM [14]	growth at 10 µM [15]	growth at 10 µM [16]	growth at 10 µM [17]	growth at 10 µM [18]	GI50 [19]	growth at 10 µM [20]	also measured
CC(C)(C)OC[C@@H]1NC(c2ccc(Br)cc2)=Nc2nc3ccccn3c2C1=O	-13.8%	64.3%	67.5%	53.7%	78.1%	95.1%	65.2%	40.3%	45.6%	35.4%	71.5%	76.5%	75.3%	82.7%	44.1%	25.2%	33.4%	33.1%	950 nM	61.5%	growth at 10 µM [21]: 52.1%; growth at 10 µM [22]: 53.4%; growth at 10 µM [23]: 54.5%; growth at 10 µM [24]: 74.3%; growth at 10 µM [25]: 84.1%; growth at 10 µM [26]: 49.2%; growth at 10 µM [27]: 46.4%; growth at 10 µM [28]: 61.9%; growth at 10 µM [29]: 61.6%; growth at 10 µM [30]: 79.5%; growth at 10 µM [31]: 38.4%; growth at 10 µM [32]: 82.3%; growth at 10 µM [33]: 66.9%; growth at 10 µM [34]: 49%; growth at 10 µM [35]: 77.4%
C[C@@H]1NC(c2ccc(Cl)cc2)=Nc2nc3ccccn3c2C1=O	32.9%	75.5%	91.3%	88.5%	88%	114%	87.1%	83.6%	97.9%	46.7%	81.4%	93.2%	88.3%	100%	77.6%	70%	66.3%	102%	5000 nM	76%	growth at 10 µM [21]: 68.2%; growth at 10 µM [22]: 90%; growth at 10 µM [23]: 73.3%; growth at 10 µM [24]: 87.3%; growth at 10 µM [25]: 96.8%; growth at 10 µM [26]: 84.8%; growth at 10 µM [27]: 91%; growth at 10 µM [28]: 81.4%; growth at 10 µM [29]: 97.9%; growth at 10 µM [30]: 90.3%; growth at 10 µM [31]: 87.7%; growth at 10 µM [32]: 109%; growth at 10 µM [33]: 118%; growth at 10 µM [34]: 64.2%; growth at 10 µM [35]: 92.5%
C[C@@H]1NC(c2ccc(Cl)cc2Cl)=Nc2nc3ccccn3c2C1=O	-16.6%	50.1%	75.2%	50.4%	75.7%	74.5%	52%	25.2%	53.9%	33%	61.4%	60.8%	60.2%	64.8%	35.1%	23.6%	28.9%	0.46%	1150 nM	64.6%	growth at 10 µM [21]: 52.4%; growth at 10 µM [22]: 39.1%; growth at 10 µM [23]: 52.6%; growth at 10 µM [24]: 58.9%; growth at 10 µM [25]: 75.8%; growth at 10 µM [26]: 38.2%; growth at 10 µM [27]: 31.1%; growth at 10 µM [28]: 64.3%; growth at 10 µM [29]: 80.2%; growth at 10 µM [30]: 68.1%; growth at 10 µM [31]: 39.6%; growth at 10 µM [32]: 89.5%; growth at 10 µM [33]: 60.7%; growth at 10 µM [34]: 23.8%; growth at 10 µM [35]: 58.7%
C[C@@H]1NC(c2ccc3ccccc3c2)=Nc2nc3ccccn3c2C1=O	-24.6%	40.5%	43.8%	34.5%	64.5%	64.4%	29.3%	26.3%	50.5%	30.5%	46.1%	53.3%	55.4%	73.3%	33.8%	27.6%	29.4%	-6.75%	1400 nM	52.5%	growth at 10 µM [21]: 55.6%; growth at 10 µM [22]: 52%; growth at 10 µM [23]: 36.7%; growth at 10 µM [24]: 58%; growth at 10 µM [25]: 60.1%; growth at 10 µM [26]: 36.3%; growth at 10 µM [27]: 19.8%; growth at 10 µM [28]: 41.7%; growth at 10 µM [29]: 49.9%; growth at 10 µM [30]: 54.4%; growth at 10 µM [31]: 35.3%; growth at 10 µM [32]: 74.5%; growth at 10 µM [33]: 47.2%; growth at 10 µM [34]: 30.3%; growth at 10 µM [35]: 37.1%
